This note sets out measurements from ChEMBL document CHEMBL4699405, “TPP-based mitocans: a potent strategy for anticancer drug design” (RSC Med Chem, 2020).

The subject of test [1] is MCF7. Kind of test: Cytotoxicity against human MCF7 cells assessed as reduction in cell viability incubated for 24 hrs by SRB assay. The conditions noted are these: MCF7, 24 h. The format is functional, cell-based. A general note: The SRB assay estimates cell density from bound dye.
For test [2], the system named is MDA-MB-231. Kind of test: Cytotoxicity against human MDA-MB-231 cells assessed as reduction in cell viability incubated for 24 hrs by SRB assay. It counts as functional, cell-based. The conditions noted are these: MDA-MB-231, 24 h.
The test system of test [3] is DU-145. Kind of test: Cytotoxicity against human DU-145 cells assessed as reduction in cell viability incubated for 24 hrs by SRB assay. It counts as functional, cell-based. The conditions noted are these: DU-145, 24 h.
The test system of test [4] is HeLa. Kind of test: Cytotoxicity against human HeLa cells assessed as reduction in cell viability incubated for 24 hrs by SRB assay. It counts as functional, cell-based.
Test [5] deals with SK-N-SH. Kind of test: Cytotoxicity against human SK-N-SH cells assessed as reduction in cell viability incubated for 24 hrs by SRB assay. The format is functional, cell-based.
Test [6] is described as follows: Antitumor activity against human UCI 101 ovarian cells xenografted in BALB/c mouse assessed as survival of mouse at 8 mg/kg, ip qod followed by six doses at 5 mg/kg qod measured upto 180 days (reference value: 0 (50 days)). The settings on record: UCI101, ip, 4320 h, time 180 day. The format is functional. On the technique in general: Xenograft models place foreign cells or tissue in a host animal.

The test system of test [7] is HCT-116. In words: Cytotoxicity against human HCT-116 cells assessed as reduction in cell viability at 10 umol/L incubated for 24 hrs by LDH assay. The conditions noted are these: HCT-116, 24 h, dose 10 µmol/L. It counts as functional.

`COc1cc(/C=C/C(=O)CC(=O)/C=C/c2ccc(OCCC[P+](c3ccccc3)(c3ccccc3)c3ccccc3)c(OC)c2)ccc1OCCC[P+](c1ccccc1)(c1ccccc1)c1ccccc1`: the half-inhibitory concentration (IC50) (as a rule, the concentration that inhibits the measured activity by half) in test [1] amounted to 2.31 µM; in test [2], 5.1 µM; in test [3], 5.1 µM; in test [4], 4.46 µM; in test [5] it was 5.12 µM.

Consider `CN(C)c1ccc([P+](CCCCl)(c2ccc(N(C)C)cc2)c2ccc(N(C)C)cc2)cc1`, for which the survival at 8 mg/kg in test [6] was found to be 37.5%.

`C[n+]1ccc(-c2cc[n+](CCCCCCCCCC[P+](c3ccccc3)(c3ccccc3)c3ccccc3)cc2)cc1`: the inhibition – broadly, the share of the control response that was lost under treatment – at 10 µM in test [7] was > 50%.

Consider `COc1cc(/C=C/C(=O)CC(=O)/C=C/c2ccc(OCCC[P+](c3ccccc3)(c3ccccc3)c3ccccc3)c(OC)c2)ccc1O`, for which the IC50 in test [1] came to 5.31 µM; in test [2], 8.33 µM; in test [3], 8.62 µM; in test [4], 7.69 µM; in test [5], 8.19 µM.

`CN(C)c1ccc([P+](CCCI)(c2ccc(N(C)C)cc2)c2ccc(N(C)C)cc2)cc1`: the survival at 8 mg/kg in test [6] is 12.5%.
